Measurements as given in the supplement of paper PMC10307832.

Assays:
Assay in all cases: relative viability (nuclei count vs DMSO), 5 days (fraction); higher = more cells survive
SGI-1776 + Decitabine = compound: CN1CCC(CNc2ccc3ncc(-c4cccc(OC(F)(F)F)c4)n3n2)CC1 [SGI-1776] + Nc1ncn([C@H]2C[C@H](O)[C@@H](CO)O2)c(=O)n1 [Decitabine] (partner 2 µM)
How it was run: (§1)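 Lung cancer cell lines in 1536-well plates got either a single drug or a fixed anchor-drug dose together with five library-drug doses (not always all listed) in √10 steps, by pin tool, on the day after seeding. Nuclei were counted after 5 days, and relative viability is the treated-to-vehicle ratio of nuclei counts. Values are medians of duplicate plates.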

Entinostat + Luminespib = compound: Nc1ccccc1NC(=O)c1ccc(CNC(=O)OCc2cccnc2)cc1 [Entinostat] + CCNC(=O)c1noc(-c2cc(C(C)C)c(O)cc2O)c1-c1ccc(CN2CCOCC2)cc1 [Luminespib] (partner 0.01 µM)
How it was run: as §1

[1] = compound: C1COCCN1C2=NC(=NC3=C2OC4=C3C=CC=N4)C5=CC(=CC=C5)NC(=O)C6=CN=C(C=C6)N + CC(C)C[C@H](NC(=O)[C@H](Cc1ccccc1)NC(=O)c1cnccn1)B(O)O [Bortezomib] (partner 0.002 µM)
How it was run: as §1

[2] = compound: C1COCCN1C2=NC(=NC3=C2OC4=C3C=CC=N4)C5=CC(=CC=C5)NC(=O)C6=CN=C(C=C6)N + C[C@@H](Oc1cc(-c2cnn(C3CCNCC3)c2)cnc1N)c1c(Cl)ccc(F)c1Cl [Crizotinib] (partner 1 µM)
How it was run: as §1

Cell Line | relative viability (SGI-1776 + Decitabine; first compound 0.08 µM) | relative viability (SGI-1776 + Decitabine; first compound 0.8 µM) | relative viability (SGI-1776 + Decitabine; first compound 2.53 µM) | relative viability (SGI-1776 + Decitabine; first compound 8 µM) | relative viability (Entinostat + Luminespib; first compound 0.02 µM) | relative viability (Entinostat + Luminespib; first compound 0.06325 µM) | relative viability (Entinostat + Luminespib; first compound 0.2 µM) | relative viability (Entinostat + Luminespib; first compound 0.6325 µM) | relative viability (Entinostat + Luminespib; first compound 2 µM) | relative viability ([1]; first compound 0.02 µM) | relative viability ([1]; first compound 0.06325 µM) | relative viability ([1]; first compound 0.2 µM) | relative viability ([1]; first compound 0.6325 µM) | relative viability ([1]; first compound 2 µM) | relative viability ([2]; first compound 0.02 µM) | relative viability ([2]; first compound 0.06325 µM) | relative viability ([2]; first compound 0.2 µM) | relative viability ([2]; first compound 0.6325 µM) | relative viability ([2]; first compound 2 µM)
NCI-H520 | 0.46 | 0.523 | 0.511 | 0.414 | 0.192 | 0.225 | 0.227 | 0.281 | 0.228 | 0.637 | 0.641 | 0.465 | 0.529 | 0.298 | 0.925 | 0.775 | 0.803 | 0.756 | 0.443
LOU-NH91 | 0.853 | 0.811 | 0.799 | 0.705 | 0.341 | 0.333 | 0.371 | 0.394 | 0.337 | 0.511 | 0.474 | 0.481 | 0.489 | 0.461 | 0.729 | 0.755 | 0.76 | 0.74 | 0.664
COR-L23 | 0.445 | 0.456 | 0.466 | 0.342 | 0.697 | 0.535 | 0.49 | 0.296 | 0.108 | 1.13 | 1.18 | 1.08 | 1.13 | 0.474 | 0.68 | 0.748 | 0.716 | 0.809 | 0.43
NCI-H1437 | 0.553 | 0.598 | 0.645 | 0.495 | 0.829 | 0.853 | 0.552 | 0.301 | 0.257 | 0.428 | 0.733 | 0.483 | 0.474 | 0.185 | 0.95 | 1.11 | 0.827 | 0.964 | 0.401
EPLC-272H | 0.371 | 0.365 | 0.395 | 0.322 | 0.209 | 0.187 | 0.31 | 0.262 | 0.264 | 0.965 | 0.994 | 0.816 | 0.931 | 0.558 | 0.977 | 1.03 | 1.01 | 1.04 | 0.722
ChaGo-K-1 | 0.56 | 0.542 | 0.558 | 0.47 | 0.765 | 0.523 | 0.487 | 0.596 | 0.503 | 0.938 | 1.01 | 0.568 | 1.12 | 0.746 | 1.2 | 1.14 | 1.01 | 1.26 | 0.717
NCI-H1666 | 0.8 | 0.737 | 0.729 | 0.663 | 1.05 | 1.19 | 1.04 | 0.701 | 0.445 | 0.781 | 0.902 | 0.735 | 0.588 | 0.486 | 0.743 | 1.08 | 0.82 | 1.03 | 0.619
HCC-44 | 0.964 | 0.938 | 0.941 | 0.921 | 1.04 | 0.889 | 0.741 | 0.505 | 0.324 | 0.933 | 1 | 0.849 | 0.943 | 0.726 | 0.879 | 0.927 | 0.835 | 0.887 | 0.624
